The test system of one data set is human faecal homogenates. Put plainly: In vitro conversion of amphetamine prodrugs to amphetamine in human faecal homogenates. In kind it is in vitro ADME. To be noted: for Amphetamine C6 / Amphetamine C0 / Amphetamine C24: human faecal homogenate, prodrug 10 μM, anaerobic, 37° C.; for Amphetamine C6: 6 hours; for Amphetamine C0: time 0; for conversion to the active by the microflora: summary of Table 4 incubations (dog, monkey, human faecal homogenates, rat caecal contents); for Amphetamine C24: 24 hours; for conversion to the active, human compared to dog faecal homogenates: human vs dog faecal homogenates. Here is the method:
(§1) Frozen samples were stored at −70° C. prior to analysis for the parent drug and pro-drug using a qualified LC-MS-MS assay.

The test system of the next data set is dog faecal homogenates. Kind of data set: In vitro conversion of amphetamine prodrugs to amphetamine in dog faecal homogenates. The format is in vitro ADME. Particulars: dog faecal homogenate, prodrug 10 μM, anaerobic, 37° C.; for Amphetamine C0: time 0; for Amphetamine C6: 6 hours; for Amphetamine C24: 24 hours. Here is the method:
as §1

Data set [1] in a line: Pharmacokinetics of prodrug and amphetamine after oral dosing to male cynomolgus monkeys (Example 21). Particulars: cynomolgus monkey.
Data set [2] can be described thus: Pharmacokinetics of prodrug and amphetamine after oral dosing to male dogs (Example 20). Particulars: for absorption of prodrug in the upper gastrointestinal tract: male dogs, oral gavage of prodrug; for AUC / Tmax: male, dog, in vivo, po, 0.5 mg.
The subject of data set [3] is faecal homogenates prepared from three subjects. Put plainly: Interindividual variability in amphetamine generation in human fecal homogenates (Example 25). Particulars: 100 μM, anaerobic, 37° C., up to 6 hours.
Data set [4] is described as follows: Pharmacokinetics of prodrug and amphetamine after intravenous dosing to male cynomolgus monkeys (Example 22).
Data set [5] is described as follows: Pharmacokinetics of amphetamine after oral dosing of d-amphetamine or Compound 1, or intranasal dosing of Compound 1, to male dogs (Example 23).
Data set [6] relates to monkey faecal homogenates. Put plainly: In vitro conversion of amphetamine prodrugs to amphetamine in monkey faecal homogenates. In kind it is in vitro ADME. To be noted: monkey faecal homogenate, prodrug 10 μM, anaerobic, 37° C., time 0. As for the experimental part: as §1

The structures appear in SMILES notation. “Also recorded” adds a separate entry of the source. Bounds are passed on as bounds.

`CCCCCCCC(=O)N[C@@H](C=O)[C@@H](O[C@H](C)C(=O)N[C@@H](C)Cc1ccccc1)[C@H](O)[C@H](O)CO` [Compound 19, N-((2R,3R,4R,5R)-4,5,6-trihydroxy-1-oxo-3-(((R)-1-oxo-1-(((S)-1-phenylpropan-2-yl)amino)propan-2-yl)oxy)hexan-2-yl)octanamide]: in the data set on human faecal homogenates, the “Amphetamine C6” value is “BLQ” and the “Amphetamine C0” value is on record as “BLQ”. For the same compound, the “Amphetamine C0” value in the data set with dog faecal homogenates is “BLQ”.

The term Tmax denotes the time at which the peak concentration occurs. As usually defined, the AUC is concentration integrated over time. In the case of `C[C@H](N)Cc1ccccc1` [d-Amphetamine, d-amphetamine], the Tmax in data set [1] (in vivo, 1 mg/kg) was ≤ 1 h; in data set [1] (plasma, 1 mg/kg), 2.4 h. Besides, the exposure (AUC) in data set [1] (plasma, 1 mg/kg) was determined as 4440 ng·h/mL.

Consider `C[C@@H](Cc1ccccc1)NC(=O)[C@H](O)[C@@H](O)[C@H](O)[C@H](O)CO` [Compound 6, (2R,3S,4R,5R)-2,3,4,5,6-pentahydroxy-N-((S)-1-phenylpropan-2-yl)hexanamide], for which the “Amphetamine C0” value in the data set on human faecal homogenates and in the data set with dog faecal homogenates was “BLQ” throughout. Also, the “absorption of prodrug in the upper gastrointestinal tract” value in data set [2] was “high absorption”.

As for `CCO[C@H]1O[C@H](CO)[C@@H](O)[C@H](O)[C@H]1NNC(C)Cc1ccccc1` (stereo partly drawn) [Compound 9, (2R,3S,4R,5R,6S)-6-Ethoxy-2-(hydroxymethyl)-5-[2-(1-phenylpropan-2-yl)hydrazin-1-yl]oxane-3,4-diol], the “absorption of prodrug in the upper gastrointestinal tract” value in data set [2] was “high absorption”.

`CC(=O)N[C@@H](C=O)[C@@H](O[C@H](C)C(=O)N[C@H](C)Cc1ccccc1)[C@H](O)[C@H](O)CO` [Compound 13, (2R)-2-{[(2R,3R,4R,5R)-2-Acetamido-4,5,6-trihydroxy-1-oxohexan-3-yl]oxy}-N-[(2R)-1-phenylpropan-2-yl]propanamide]: in the data set with human faecal homogenates, the “Amphetamine C0” value is listed as “BLQ” and the “conversion to the active by the microflora” value is “efficient conversion”. Moreover, in data set [2], the exposure (AUC) came out at 564 ng·h/mL and the time of peak concentration (Tmax) came to 45 min.

In the case of `C[C@@H](Cc1ccccc1)NC(=O)[C@@H](C)O[C@H]1[C@H](O)[C@@H](CO)OC[C@H]1N` [Compound 12, (R)-2-(((2R,3S,4R,5R)-5-Amino-3-hydroxy-2-(hydroxymethyl)tetrahydro-2H-pyran-4-yl)oxy)-N-((S)-1-phenylpropan-2-yl)propanamide], in the data set on human faecal homogenates, the “Amphetamine C6” value is “BLQ”, the “Amphetamine C24” value is on record as “BLQ” and the “Amphetamine C0” value is listed as “BLQ”. Also, in the data set with dog faecal homogenates, the “Amphetamine C6” value is listed as “BLQ”, the “Amphetamine C24” value is recorded as “BLQ” and the “Amphetamine C0” value was “BLQ”.

In the case of `C[C@@H](Cc1ccccc1)NC(=O)[C@@H](C)O[C@H]1[C@H](O)[C@@H](CO)OC(O)[C@@H]1N` (mixture of isomers) [Compound 4, (2R)-2-(((3R,4R,5S,6R)-3-amino-2,5-dihydroxy-6-(hydroxymethyl)tetrahydro-2H-pyran-4-yl)oxy)-N-((S)-1-phenylpropan-2-yl)propanamide], the “Amphetamine C0” value in the data set on human faecal homogenates and with dog faecal homogenates was “BLQ” throughout.

On to `CC(C)C(=O)N[C@@H](C=O)[C@@H](O[C@H](C)C(=O)N[C@@H](C)Cc1ccccc1)[C@H](O)[C@H](O)CO` [Compound 18, N-((2R,3R,4R,5R)-4,5,6-trihydroxy-1-oxo-3-(((R)-1-oxo-1-(((S)-1-phenylpropan-2-yl)amino)propan-2-yl)oxy)hexan-2-yl)isobutyramide], for which the “Amphetamine C0” value with human faecal homogenates and with dog faecal homogenates was “BLQ” throughout.

`C[C@@H](Cc1ccccc1)NC(=O)[C@H](O)[C@@H](O)[C@H](O[C@@H]1O[C@H](CO)[C@H](O)[C@H](O)[C@H]1O)[C@H](O)CO` [Compound 5, (2R,3R,4R,5R)-2,3,5,6-tetrahydroxy-N-((S)-1-phenylpropan-2-yl)-4-(((2S,3R,4S,5R,6R)-3,4,5-trihydroxy-6-(hydroxymethyl)tetrahydro-2H-pyran-2-yl)oxy)hexanamide]: in the data set with human faecal homogenates, the “conversion to the active, human compared to dog faecal homogenates” value is recorded as “greater activity in human in vitro studies; also recorded: higher in human compared to dog faecal homogenates” and the “conversion to the active by the microflora” value is listed as “efficient conversion”.

Regarding `CC(=O)N[C@H]1C(O)O[C@H](CO)[C@@H](O)[C@@H]1O[C@@H](C)C(=O)N[C@@H](C)Cc1ccccc1` (stereo partly drawn) [Compound 14, (2S)-2-(((3R,4R,5S,6R)-3-Acetamido-2,5-dihydroxy-6-(hydroxymethyl)tetrahydro-2H-pyran-4-yl)oxy)-N-((S)-1-phenylpropan-2-yl)propanamide], in the data set with human faecal homogenates, the “Amphetamine C6” value is reported as “BLQ”, the “Amphetamine C24” value is on record as “BLQ” and the “Amphetamine C0” value is “BLQ”. Also, in the data set on dog faecal homogenates, the “Amphetamine C0” value is given as “BLQ”.

Consider `CC(=O)N[C@H]1C(O)O[C@H](CO)[C@H](O)C1O[C@H](C)C(=O)N[C@@H](C)Cc1ccccc1` (stereo partly drawn) [Compound 1, (2R)-2-(((3R,4R,5R,6R)-3-acetamido-2,5-dihydroxy-6-(hydroxymethyl)tetrahydro-2H-pyran-4-yl)oxy)-N-((S)-1-phenylpropan-2-yl)propanamide], for which, in data set [1] (in vivo, 0.5 mg), the AUC amounted to 187 ng·h/mL and the Tmax worked out at 1.1 h. Also, the “conversion to the active by the microflora” value with human faecal homogenates is “efficient conversion”. In data set [2], the AUC is 354 ng·h/mL and the Tmax amounted to 60 min. For the same compound, the “variability of amphetamine generation between subjects” value in data set [3] was “relatively modest variability”. Further, the “conversion to the active amphetamine following systemic exposure” value in data set [4] is on record as “no significant quantities”. Also, the “amphetamine levels where detected (one time point between 4 and 8 hours)” value in data set [4] (0.2 mg d-amphetamine free base equivalents/kg) is listed as “near the limit of quantification”. Also, the “exposure to amphetamine, intranasal compared with oral administration of the prodrug” value in data set [5] (4 mg intranasal vs 4 mg po) is given as “less than that observed following oral administration of the prodrug”. Also, the “onset of amphetamine appearance in the systemic circulation” value in data set [5] (intranasal) is recorded as “did not enhance the onset”. For the same compound, the “Amphetamine C0” value in data set [6] is given as “BLQ”.

As for `CC(=O)N[C@H]1C(O)O[C@H](CO)[C@@H](O)[C@@H]1OCC(=O)N[C@@H](C)Cc1ccccc1` (stereo partly drawn) [Compound 15, 2-(((3R,4R,5S,6R)-3-acetamido-2,5-dihydroxy-6-(hydroxymethyl)tetrahydro-2H-pyran-4-yl)oxy)-N-((S)-1-phenylpropan-2-yl)acetamide], the “Amphetamine C0” value in the data set with human faecal homogenates and with dog faecal homogenates was “BLQ” throughout.

For `CC(=O)N[C@@H]1CO[C@H](CO)[C@@H](O)[C@@H]1O[C@H](C)C(=O)N[C@@H](C)Cc1ccccc1` [Compound 11, (R)-2-(((2R,3S,4R,5R)-5-Acetamido-3-hydroxy-2-(hydroxymethyl)tetrahydro-2H-pyran-4-yl)oxy)-N-((S)-1-phenylpropan-2-yl)propanamide], in the data set with human faecal homogenates, the “Amphetamine C6” value is on record as “BLQ”, the “Amphetamine C24” value is recorded as “BLQ” and the “Amphetamine C0” value is listed as “BLQ”. In the data set with dog faecal homogenates, the “Amphetamine C6” value is “BLQ”, the “Amphetamine C24” value is given as “BLQ” and the “Amphetamine C0” value was “BLQ”.

With `CO[C@H]1O[C@H](CO)[C@@H](O)[C@H](O)[C@H]1NNC(C)Cc1ccccc1` (stereo partly drawn) [Compound 10, (2R,3S,4R,5R,6S)-6-Methoxy-2-(hydroxymethyl)-5-[2-(1-phenylpropan-2-yl)hydrazin-1-yl]oxane-3,4-diol], the “absorption of prodrug in the upper gastrointestinal tract” value in data set [2] is listed as “high absorption”.

Take `CC(=O)N[C@H]1[C@@H]2OC[C@@H](O2)[C@@H](O)[C@@H]1O[C@H](C)C(=O)N[C@H](C)Cc1ccccc1` [Compound 17, (2R)-2-[[(2S,3R,4R)-4-acetamido-2-hydroxy-6,8-dioxabicyclo[3.2.1]octan-3-yl]oxy]-N-[(1R)-1-methyl-2-phenyl-ethyl]propanamide]: in the data set with human faecal homogenates, the “Amphetamine C0” value is “BLQ”; the “conversion to the active, human compared to dog faecal homogenates” value is “greater activity in human in vitro studies; also recorded: higher in human compared to dog faecal homogenates”; the “conversion to the active by the microflora” value is on record as “efficient conversion”. In data set [2], the exposure (AUC) came to 213 ng·h/mL and the time of peak concentration (Tmax) worked out at 30 min. For the same compound, the “Amphetamine C0” value in the data set on dog faecal homogenates was “BLQ”.

Consider `C[C@@H](Cc1ccccc1)NC(=O)[C@@H](C)OC(=O)N[C@H]1C(O)O[C@H](CO)[C@@H](O)[C@@H]1O` (stereo partly drawn) [Compound 8, (1R)-1-{[(2S)-1-Phenylpropan-2-yl]carbamoyl}ethyl N-[(3R,4R,5S,6R)-2,4,5-trihydroxy-6-(hydroxymethyl)oxan-3-yl]carbamate], for which, in the data set with human faecal homogenates, the “Amphetamine C6” value is listed as “BLQ”, the “Amphetamine C24” value was “BLQ” and the “Amphetamine C0” value is “BLQ”. In the data set with dog faecal homogenates, the “Amphetamine C6” value is recorded as “BLQ”, the “Amphetamine C24” value is on record as “BLQ” and the “Amphetamine C0” value was “BLQ”.

Take `CCC(=O)N[C@H]1C(O)O[C@H](CO)[C@@H](O)[C@@H]1O[C@H](C)C(=O)N[C@@H](C)Cc1ccccc1` (stereo partly drawn) [Compound 16, (2R)-2-[(3R,4R,5S)-2,5-dihydroxy-6-(hydroxymethyl)-3-(propanoylamino)tetrahydropyran-4-yl]oxy-N-[(1S)-1-methyl-2-phenyl-ethyl]propanamide]: in the data set on human faecal homogenates, the “Amphetamine C0” value is “BLQ” and the “conversion to the active by the microflora” value is recorded as “efficient conversion”. In addition, in data set [2], the AUC is 273 ng·h/mL and the Tmax was determined as 30 min. In the data set with dog faecal homogenates, the “Amphetamine C0” value is reported as “BLQ”.

For the origin of these results see US20140073589A1, “Amphetamine Prodrugs” (Shire AG, priority 2012, published 2014).
